The text below walks through data of US11111270B2, “Inhibitor of apoptosis protein (IAP) antagonists” (Sanford Burnham Prebys Medical Discovery Institute, priority 2012, dated 2021).

Each structure is given as a SMILES string.

In one test the test system is MDA-MB-231 cells. The test is described as follows: MDA-MB-231 cell survival (Cell Titer Glo). It is filed as cell-based. The method, then:
(§1) 5000 PPC-1 cells were plated and grown overnight. Compounds were plated and 4 hrs later, TRAIL was added to half of the plate while RPMI was added to the other half of the plate as a control. Plates were return to the incubator for 24 hrs. Plates were removed from the incubator and placed on the bench for 30 min and then 25 uL of Cell Titer Glo were added per well. Plates were placed on a rocker and then read on a luminometer. 5000 MDA-MB-231 cells were plated per well. Compound was added and 4 hrs later, TRAIL was added at 5 ng/mL; RPMI was added for a minus TRAIL control. Plates were incubated an additional 24 hrs, removed to the bench for 30 min, and then 25 uL of cell titer glo was added per well. Plates were placed on a rocker and read on a luminometer. Data were fit using PRISM.
A general note: In ATP-based viability assays light output follows the ATP content of the culture.

For test [1], the system named is PPC-1 cells. Put plainly: PPC-1 cell survival with TRAIL (Cell Titer Glo). It is filed as cell-based. The method, then: as §1
The next test concerns the target ML-IAP (Homo sapiens (Human), UniProt Q96CA5). The test is described as follows: ML-IAP Ki. Format: binding. To be noted: Table B-1.
A further test has as its target XIAP BIR3 (Homo sapiens (Human), UniProt P98170). Put plainly: XIAP BIR3 Ki. Format: binding. Conditions: Table B-1.
A further test has as its target XIAP BIR1/2 (Homo sapiens, UniProt P98170). Put plainly: XIAP BIR1/2 Ki. Format: binding. Conditions: Table B-1.
In test [2] the test system is PPC-1 cells. Put plainly: PPC-1 cell survival with TNFα. Format: cell-based. The protocol:
as §1, with “Compounds were plated and 4 hrs later, TRAIL was added to half of the plate while RPMI was added to the other half of the plate as a control.” left out

Chain of XIAP BIR1/2 (P98170 whole entry, looked up): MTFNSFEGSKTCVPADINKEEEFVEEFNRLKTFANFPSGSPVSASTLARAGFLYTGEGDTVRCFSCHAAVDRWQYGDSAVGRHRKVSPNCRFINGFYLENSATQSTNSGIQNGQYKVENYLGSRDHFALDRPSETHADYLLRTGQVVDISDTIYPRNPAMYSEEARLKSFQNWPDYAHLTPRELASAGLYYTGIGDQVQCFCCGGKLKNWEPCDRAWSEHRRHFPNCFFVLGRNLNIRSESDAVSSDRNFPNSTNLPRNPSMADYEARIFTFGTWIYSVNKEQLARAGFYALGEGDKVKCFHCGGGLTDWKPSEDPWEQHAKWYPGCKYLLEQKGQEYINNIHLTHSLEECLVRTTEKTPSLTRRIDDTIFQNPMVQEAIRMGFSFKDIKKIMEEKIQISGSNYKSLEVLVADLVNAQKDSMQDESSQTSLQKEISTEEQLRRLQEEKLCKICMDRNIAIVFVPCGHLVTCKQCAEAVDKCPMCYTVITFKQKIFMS
Chain of ML-IAP (Q96CA5 whole entry, species assumed): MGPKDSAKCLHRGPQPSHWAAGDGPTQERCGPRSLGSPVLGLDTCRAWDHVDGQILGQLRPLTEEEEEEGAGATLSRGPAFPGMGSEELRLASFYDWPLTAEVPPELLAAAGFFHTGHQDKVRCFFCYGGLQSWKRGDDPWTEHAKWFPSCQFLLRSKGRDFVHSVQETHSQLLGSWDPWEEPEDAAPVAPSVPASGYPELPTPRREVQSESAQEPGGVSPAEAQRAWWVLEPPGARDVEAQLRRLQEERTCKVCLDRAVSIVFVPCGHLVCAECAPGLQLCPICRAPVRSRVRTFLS
Chain of XIAP BIR3 (P98170 241-356): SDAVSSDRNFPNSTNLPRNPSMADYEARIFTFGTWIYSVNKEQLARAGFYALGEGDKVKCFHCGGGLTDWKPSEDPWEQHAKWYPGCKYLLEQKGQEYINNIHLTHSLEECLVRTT

On to `CN[C@@H](C)C(=O)N[C@H]1CCO[C@H]2CCC(C(=O)N[C@@H]3CCCc4ccccc43)N2C1=O` (stereo partly drawn) [Product 12], for which, in the test on MDA-MB-231 cells, the “MDA-MB-231 LD50” value is recorded as “A (A = ≤ 25 micromolar)”. For the same compound, the “PPC-1 (TRAIL) LD50” value in the test with PPC-1 cells [1] is recorded as “A (A = ≤ 25 micromolar)”. Besides, the Ki on ML-IAP was less than 25 µM; on XIAP BIR3, less than 25 µM; on XIAP BIR1/2, more than 50 µM. The “PPC-1 (TNFα) LD50” value with PPC-1 cells [2] is given as “A (A = ≤ 25 micromolar)”.

With `CN[C@@H](C)C(=O)N[C@H]1CCO[C@H]2CC(C)(C)[C@@H](C(=O)N[C@@H]3CCCc4ccccc43)N2C1=O` [Product 26], in the test with MDA-MB-231 cells, the “MDA-MB-231 LD50” value is listed as “A (A = ≤ 25 micromolar)”. The “PPC-1 (TRAIL) LD50” value with PPC-1 cells [1] is given as “A (A = ≤ 25 micromolar)”. For the same compound, the Ki on ML-IAP, on XIAP BIR3 and at XIAP BIR1/2 was less than 25 µM each time. Also, the “PPC-1 (TNFα) LD50” value with PPC-1 cells [2] was “A (A = ≤ 25 micromolar)”.

In the case of `CN[C@@H](C)C(=O)N[C@H]1CCS[C@H]2CCC(C(=O)N[C@@H]3CCCc4ccccc43)N2C1=O` (stereo partly drawn) [Product 24], the “MDA-MB-231 LD50” value in the test on MDA-MB-231 cells is “A (A = ≤ 25 micromolar)”. The “PPC-1 (TRAIL) LD50” value with PPC-1 cells [1] is listed as “A (A = ≤ 25 micromolar)”. In addition, the Ki on ML-IAP is less than 25 µM; at XIAP BIR3, less than 25 µM; at XIAP BIR1/2, more than 50 µM. In addition, in the test with PPC-1 cells [2], the “PPC-1 (TNFα) LD50” value is reported as “A (A = ≤ 25 micromolar)”.

Usually Ki stands for the equilibrium dissociation constant of an inhibitor or competing ligand from its target.
